{"source": "patent US6066635A", "about": "“Avrainvillamide, a cytotoxic marine natural product, and derivatives thereof” (University of California, San Diego, priority 1999, dated 2000)", "format_in_all_cases": "cell-based", "key": {"[1]": {"tested_on": "breast cancer cells T-47D", "assay": "in vitro cytotoxicity at the National Cancer Institute (NCI 60 cell panel), breast cancer T-47D", "conditions": "Homo sapiens, T47D; breast cancer T-47D (printed T-470); inhibition of cell proliferation by 50%", "text": "(§1) Thus, the invention provides a method of treating a cancer patient by administering to the patient a compound of the invention in an amount sufficient to reduce or inhibit proliferation of cancer cells in the patient."}, "[2]": {"tested_on": "melanoma MALME-3M cells", "assay": "in vitro cytotoxicity at the National Cancer Institute (NCI 60 cell panel), melanoma", "conditions": "Homo sapiens, inhibition of cell proliferation by 50%", "text": "as §1"}, "[3]": {"tested_on": "breast cancer cells βT-549", "assay": "in vitro cytotoxicity at the National Cancer Institute (NCI 60 cell panel), breast cancer βT-549", "conditions": "inhibition of cell proliferation by 50%", "text": "as §1"}, "[4]": {"tested_on": "human colon HCT116 cells", "assay": "HCT-116 cytotoxicity assay", "conditions": "human colon HCT-116 cells; concentration required to inhibit cell proliferation by 50% vs untreated cells", "text": "as §1"}, "[5]": {"tested_on": "tumor cell lines in the NCI 60 cell panel", "assay": "cytotoxic effect in the NCI 60 cell panel", "text": "as §1"}}, "data": [{"smiles": "CC1(C)C=Cc2c(ccc3c2[N+]([O-])=C2C3=CC34NC(=O)C5(CCCN5C3=O)CC4C2(C)C)O1", "note": "(stereo not drawn) [Avrainvillamide]", "values": [{"measurement": "IC50", "setting": "[1]", "value": 72, "unit": "nM"}, {"measurement": "IC50", "setting": "[2]", "value": 53, "unit": "nM"}, {"measurement": "IC50", "setting": "[3]", "value": 34, "unit": "nM"}, {"measurement": "IC50", "setting": "[4]", "value": 2, "unit": "µg/mL"}, {"measurement": "selective in vitro cytotoxicity towards melanoma and breast cancers", "setting": "[5]; MALME-3M, βT-549 and T-470", "value": "significant selective in vitro cytotoxicity"}, {"measurement": "cytotoxic effect against a variety of tumor cell lines", "setting": "[5]; NCI 60 cell panel", "value": "dose dependent cytotoxic effect"}]}]}
